Values of other authors as cited in patent publication US20250331550A1, “AEROSOL-GENERATING ARTICLE EMBEDDED AVERSIVE AGENT” (PHILIP MORRIS PRODUCTS S.A., priority 2022, published 2025).
Where a name gives a salt, the structure may show the parent alone.

System: test panel
Conditions: reciprocal of the dilution that still has a bitter taste; quinine hydrochloride set at 200,000

Molecule | Bitterness value
CC1=C[C@H]2[C@H]3[C@H](C(C)=C4[C@H]5OC(=O)[C@@H](C)[C@@H]5CC[C@](C)(O)[C@@H]43)[C@@]13[C@@H]2[C@@](C)(O)CC[C@H]1[C@H](C)C(=O)O[C@@H]13 [Absinthin, absinthin] | 3,000,000
C[C@@]12C[C@@H](c3ccoc3)OC(=O)[C@@H]1CC[C@]1(C)[C@H]2[C@@H]2C=C[C@@]1(O)C(=O)O2 [Columbin, columbin] | 60,000,000
COC1=C[C@@H](C)[C@@H]2C[C@H]3OC(=O)C[C@H]4C(C)=C(OC)C(=O)[C@H]([C@@]2(C)C1=O)[C@@]34C [Quassin, quassin] | 13,000,000
C=C[C@H]1C[N@@]2CC[C@H]1C[C@H]2[C@H](O)c1ccnc2ccc(OC)cc12 [Quinine hydrochloride, quinine hydrochloride] | 200,000
amarogentin | 58,000,000
